From patent US12642794B2, “Dose regimens for use of LY3154207 in the treatment of dopaminergic CNS disorders” (Eli Lilly and Company, priority 2018, dated 2026)

Columns and labels:
adult rhesus monkey [1] = test: Spatial Delayed Response Task, spatial working memory; assay type: in vivo, rhesus macaque; conditions: for spatial working memory performance after repeat of the dose: 2.5 mg/kg on Day 1 and repeated on Day 5
Description: Experimental Overview: A group of both aged and non-aged animals was tested at a single dose of 2.5 mg/kg and their performance was followed daily for the first six days and on alternate days thereafter. This was to ascertain that we could repeat the effects we observed previously at the lowest possible dose. The effects of repeating this dose on Day 5, at the […] mark, were examined in order to determine whether (i) an immediate diminution in performance could still be seen the next day and (ii) whether the treatment could achieve a relatively consistent and enduring enhancement of performance in the following days. Since this dose was also capable of inducing a short term deficit in performance, the effects of single administrations at lower doses of 0.1 and 1.0 mg/kg were examined.
All animals were rhesus macaques except one stumptail (Macaca arctoides). Details of the animal demographics are given with each set of results. It was desired to have younger animals in each study, however a preponderance of aged animals were studied, and females outnumbered males by 2 or 3 to one. The Spatial Delayed Response Task is established as one of the most reliable, sensitive, and valuable models in which to test spatial working memory in primates. The Spatial Delayed Response Task is implemented rigidly in a completely systematic format that is uniform within and between animals and between studies. The Spatial Delayed Response Task is designed to normalize performance across animals such they all normally perform at ˜70% correct. The Spatial Delayed Response Task directly challenges the same spatial working memory circuitry in human and nonhuman primates, including dorsolateral prefrontal cortex, posterior parietal cortex and MD thalamus. The Spatial Delayed Response Task is sensitive to multiple neuropharmacological manipulations, whether administered locally or systemically, including dopaminergic, nicotinic, glutamatergic, and GABAergic agents. In this task one of several well locations are baited with food in view of the animal and then covered with identical plaques. An opaque shutter is then lowered for one of 5 variable delays, and then raised to allow the animal to make a response to one of the well locations to retrieve the food treat. Each animal is stabilized (65-75% correct ±≤2.5%) prior to commencing any administration by varying the number of wells and the lengths of the delay. Each testing session consists of 20 trials, 4 trials at each of 5 delays (distributed semi-randomly) ranging from 0, 1, 2, 3, and 4 N seconds, where N is incremented from 1 to 10 according to ability. The number of wells ranges for 2 to 7 and thus stability is achieved by gradually varying the number of wells and the N factor. Original baseline is achieved on initial training and is standardized over twenty sessions, thereafter an animal typically undergoes regular testing to ensure a reasonably stable baseline. An absolute minimum of three baseline sessions are required prior to any experimental condition. Animals are not food deprived but instead reward for correct responses with their most preferred treats (such as yoghurt raisins, gummy bears, and almonds) and then fed their normal ration of nutritional biscuits shortly after cognitive testing.
DPTQ was formulated as a suspension in 20% Captisol/PBS at pH8. Great care was taken to protect the compound in sonication and it was injected (at a volume of 0.2 ml/kg) via a 21G hypodermic needle (to avoid blockage) into the gluteus maximus within 2 hours of formulation (kept on ice). Vehicle was refrigerated in sterile injectable vials for up to one month. Animals were fully acclimated to all procedures prior to enrollment into any study. They were assigned on a readiness for study basis and where relevant, assignment was semirandom between vehicle and treatment arms. IM injections were performed in the animals' home cage 1 hour prior to cognitive testing. […]

adult rhesus monkey [2] = test: as above; assay type: in vivo, rhesus macaque

## C[C@H]1c2cccc(CC(C)(C)O)c2C[C@H](CO)N1C(=O)Cc1c(Cl)cccc1Cl [DPTQ, 2-(2,6-dichlorophenyl)-1-((1S,3R)-5-(2-hydroxy-2-methylpropyl)-3-(hydroxymethyl)-1-methyl-3,4-dihydroisoquinolin-2 (1H)-yl) ethan-1-one]
Adult rhesus monkey [1]; 0.1 mg/kg
  diminution in spatial working memory performance: No sign of any diminution in performance
Adult rhesus monkey [1]; 0.1 mg/kg, 2-week period
  enhancement of spatial working memory performance: modest
Adult rhesus monkey [1]; 0.1 mg/kg, Day 4
  spatial working memory performance versus baseline: significant improvement over baseline
Adult rhesus monkey [1]; 1.0 mg/kg
  early deficit in spatial working memory: not evident
Adult rhesus monkey [1]; 1.0 mg/kg, significance on Day 5
  enhancement of spatial working memory performance: stronger than for the 0.1 mg/kg dose
Adult rhesus monkey [1]; 2.5 mg/kg IM, Day 1
  effect on spatial working memory performance: No immediate effect
Adult rhesus monkey [1]; 2.5 mg/kg IM, Day 3
  impairment of spatial working memory performance: ~10%
Adult rhesus monkey [1]; 2.5 mg/kg IM, starting from Day 4, prolonged
  enhancement of spatial working memory performance: ~10%
Adult rhesus monkey [1]; 2.5 mg/kg and above
  duration of sustained positive effect: ≥ 14 days
Adult rhesus monkey [1]; Day 6
  spatial working memory performance after repeat of the dose: distinctive drop in performance
Adult rhesus monkey [1]; after Day 6
  spatial working memory performance after repeat of the dose: enhancement for the subsequent week
Adult rhesus monkey [1]; 2.5 mg/kg, combined scores for Days 4, 5, and 6
  difference between aged and non-aged animals: No significant difference
Adult rhesus monkey [1]; 24 to 48 hours post injection
  spatial working memory performance: substantially impaired
Adult rhesus monkey [1]; 96 to 120 hours post injection
  spatial working memory performance: considerably enhanced
Adult rhesus monkey [2]; acute doses of 2.5 to 10 mg/kg IM
  acute effect on spatial working memory performance: trend in reducing spatial working memory performance
Adult rhesus monkey [2]; rhesus monkey, in vivo
  protection against ketamine induced cognitive deficits: little effect
